Source: US20030073731A1, “Compositions and methods of the use thereof achiral analogues of CC-1065 and the duocarmycins” (priority 2000, published 2003)
pIC50: −log10 of the molar value. Like-named read-outs stand apart in the source and are kept apart here.

Legend:
SF-295 = assay: cells; settings: Homo sapiens
RXF 393 = assay: NCI in-vitro cytotoxicity screen, Renal Cancer panel; type: cell-based; settings: Homo sapiens
Experimental: The compounds of this invention were also tested against the panel of 60 human cancer cell lines at the National Cancer Institute, Bethesda, Md. […] The cytotoxicity studies were conducted using a 48 hour exposure, and measuring the optical density of sulforhodamine B-derived color.

SK-MEL-5 [1] = assay: cells; settings: Homo sapiens
NCI-H226 = assay: cells; settings: Homo sapiens
MDA-MB-435 = assay: cells; settings: Homo sapiens
MCF7 = assay: cells; settings: Homo sapiens
L1210 leukemia cells = assay: cells; type: cell-based, murine; settings: Mus musculus; L1210, 72 hr incubation
Experimental: (§1) The P815 and L1210 cell lines were obtained from American Type Tissue Culture Collection (ATCC). The cell lines were grown in Delbecco's Modified Eagle Medium (DMEM, Atlanta Biologicals) supplemented with 10% fetal bovine serum, Hepes Buffer (2 mM, Mediatech Cellgro, 25-060-Cl), L-Glutamine (2 mM, Mediatech Cellgro), and penicillin/streptomycin (50,000 units penicillin, […] streptomycin, Atlanta Biologicals). Cells were maintained at 37° C. in a 5% humidified CO2 atmosphere. […] This cell suspension (100 μL) was added to 96 well flat-bottom cell culture plates. At this concentration, 80,000 cells were seeded in each well. Drug solutions (dissolved in DMSO and diluted in DMEM) were added to each well (5 μL/well) resulting in final concentrations ranging from […] to 1×10^−12 M. Quadruplicate wells were prepared for each drug concentration. The plates were incubated for 72 hr at 37° C. in a 5% CO2 atmosphere. MTT (3-(4,5-dimethylthiazol-2-yl)-2,5-diphenyl tetrazolium bromide) was dissolved in PBS (5 mg/ml). After the indicated cell incubation period, 10 μL of this stock MTT solution was added to each well and the plates were further incubated for 4 h at 37° C. in a 5% CO2 atmosphere. […] The contents of the well were mixed thoroughly by pipetting the cell suspension up and down and the plates were allowed to sit at room temperature for 15 min in order to allow for full development of the purple color. The plates were read on a Dynatech Plate Reader, utilizing Dynex Revelation 3.2 software, with a test wavelenth of 570 nm and a reference wavelength of […].

P815 mastocytoma cells = assay: cells; type: cell-based, murine; settings: Mus musculus; P815, 72 hr incubation
Experimental: as §1

SNB-75 = assay: cells; settings: Homo sapiens
SK-MEL-28 [2] = assay: cells; settings: Homo sapiens
MDA-N = assay: cells; settings: Homo sapiens
HT29 = assay: cells; settings: Homo sapiens
K-562 = assay: cells; settings: Homo sapiens
DU-145 = type: cell-based, human
SK-MEL-5 [3] = test system: SK-MEL-5
SK-MEL-28 [4] = test system: SK-MEL-28

Experimental for human H522 lung cancer: For these assays, human tumor cells are cultivated in polyvinylidene fluoride (PVDF) hollow fibers, and a sample of each cell line is implanted into each of two physiologic compartments (intraperitoneal and subcutaneous) in mice. […] Three mice are treated with potential antitumor compounds at each of 2 test doses by the intraperitoneal route using a QD×4 treatment schedule. Vehicle controls consist of 6 mice receiving the compound diluent only. The fiber cultures are collected on the day following the last day of treatment. To assess anticancer effects, viable cell mass is determined for each of the cell lines using a formazan dye (MTT) conversion assay. From this, the %T/C can be calculated using the average optical density of the compound treated samples divided by the average optical density of the vehicle controls. In addition, the net increase in cell mass can be determined for each sample as a sample of fiber cultures are assessed for viable cell mass on the day of implantation into mice. Thus, the cytostatic and cytocidal capacities of the test compound can be assessed.
The data are reported as %T/C for each of the 2 compound doses against each of the cell lines with separate values calculated for the intraperitoneal and subcutaneous samples.
Compounds are selected for further in vivo testing in standard subcutaneous xenograft models on the basis of several hollow fiber assay criteria. […] The intraperitoneal and subcutaneous samples are scored separately so that criteria (1) and (2) can be evaluated. Compounds with a combined IP+SC score≧20, a SC score×8 or a net cell kill of one or more cell lines are referred for xenograft testing. These criteria were statistically validated by comparing the activity outcomes of ≧80 randomly selected compounds in the hollow fiber assay and in the xenograft testing.

COC(=O)c1[nH]c2c(O)cc(NC(=O)c3cc4cc(OC)c(OC)c(OC)c4[nH]3)c(CCCl)c2c1C(=O)OC [Compound 22, Dimethyl 4-(2-chloroethyl)-7-hydroxy-5-(5,6,7-trimethoxyindole-2-carboxamido)indole-2,3-dicarboxylate]
GI50 (SF-295; SF-295): 126 nM | CC50 (SF-295; SF-295, read-out: LC50): > 50000 nM | GI50 (RXF 393; RXF 393): 74.7 nM | CC50 (RXF 393; RXF 393, read-out: LC50): 21500 nM | GI50 (SK-MEL-5 [1]; SK-MEL-5): 32.3 nM | CC50 (SK-MEL-5 [1]; SK-MEL-5, read-out: LC50): > 50000 nM | GI50 (NCI-H226; NCI-H226): 74.8 nM | CC50 (NCI-H226; NCI-H226, read-out: LC50): 2550 nM | GI50 (MDA-MB-435; MDA-MB-435): 137 nM | CC50 (MDA-MB-435; MDA-MB-435, read-out: LC50): > 50000 nM | GI50 (MCF7; MCF7): 22.4 nM | CC50 (MCF7; MCF7, read-out: LC50): 47500 nM | pIC50 (L1210 leukemia cells): 5.38 | pIC50 (P815 mastocytoma cells): 5.27 | GI50 (SNB-75; SNB-75): 62.8 nM | CC50 (SNB-75; SNB-75, read-out: LC50): 711 nM | GI50 (SK-MEL-28 [2]; SK-MEL-28): 172 nM | CC50 (SK-MEL-28 [2]; SK-MEL-28, read-out: LC50): > 50000 nM | GI50 (MDA-N): 150 nM | CC50 (MDA-N; read-out: LC50): > 50000 nM | GI50 (HT29; HT-29): 68.1 nM | CC50 (HT29; HT-29, read-out: LC50): 2340 nM | GI50 (K-562; K562): 315 nM | CC50 (K-562; K562, read-out: LC50): > 50000 nM

4-(2-Chloroethyl)-3-[5-(5-benzofuran-2-carboxamido)indole-2-carboxamido]phenol [Compound 1]
GI50 (ACHN): 1530 nM | TGI (ACHN): 5.55E-06 Molar | GI50 (BT-549): 3600 nM | TGI (BT-549): 2.05E-05 Molar | GI50 (HCT-116): 1940 nM | TGI (HCT-116): 5.73E-06 Molar | GI50 (CCRF-CEM): 1260 nM | TGI (CCRF-CEM): 5.28E-06 Molar | IP+SC score (human H522 lung cancer): 18 | cell kill (human H522 lung cancer): significant cells kill was observed | IP score (human H522 lung cancer; intraperitoneal fibers): 8 | SC score (human H522 lung cancer; subcutaneous fibers): 10 | GI50 (EKVX): 1780 nM | TGI (EKVX): 4.41E-06 Molar | GI50 (LOX IMVI): 2430 nM | TGI (LOX IMVI): 6.93E-06 Molar | GI50 (SN12C): 3100 nM | TGI (SN12C): 9.41E-06 Molar | GI50 (DU-145): 1120 nM | TGI (DU-145): 6.16E-06 Molar | GI50 (SF-539): 1920 nM | TGI (SF-539): 4.16E-06 Molar | GI50 (OVCAR-3): 2130 nM | TGI (OVCAR-3): 4.69E-06 Molar | GI50 (SK-MEL-5 [3]): 1730 nM | TGI (SK-MEL-5 [3]): 3.34E-06 Molar | GI50 (SK-MEL-28 [4]): 2400 nM | TGI (SK-MEL-28 [4]): 6.10E-06 Molar | GI50 (A549/ATCC): 1980 nM | TGI (A549/ATCC): 6.58E-06 Molar | GI50 (786-0): 2620 nM | TGI (786-0): 1.07E-05 Molar | GI50 (RPMI-8226): 1860 nM | TGI (RPMI-8226): 5.59E-06 Molar
